Measured values as given in US7368578B2, “Five-membered heterocyclic compounds” (Takeda Pharmaceutical Company Limited, priority 2002, dated 2008).

melting point	SMILES
167 to 168 °C	COc1cc(COc2nn(Cc3ccccc3)cc2C(=O)O)ccc1OCc1nc(-c2ccco2)oc1C [Example 13, 1-benzyl-3-[(4-{[2-(2-furyl)-5-methyl-1,3-oxazol-4-yl]methoxy}-3-methoxybenzyl)oxy]-1H-pyrazole-4-carboxylic acid]
160 to 161 °C	COc1cc(COc2nn(Cc3ccccc3)cc2C(N)=O)ccc1OCc1nc(-c2ccco2)oc1C [Example 14, 1-benzyl-3-[(4-{[2-(2-furyl)-5-methyl-1,3-oxazol-4-yl]methoxy}-3-methoxybenzyl)oxy]-1H-pyrazole-4-carboxamide]
104 to 105 °C	COc1cc(COc2nn(Cc3ccccc3)cc2CO)ccc1OCc1nc(-c2ccco2)oc1C [Example 15, (1-benzyl-3-[(4-{[2-(2-furyl)-5-methyl-1,3-oxazol-4-yl]methoxy)-3-methoxybenzyl)oxy]-1H-pyrazol-4-yl}methanol]
139 to 140 °C	COc1cc(COc2nn(Cc3ccccc3)cc2C=O)ccc1OCc1nc(-c2ccco2)oc1C [Example 16, 1-benzyl-3-[(4-{[2-(2-furyl)-5-methyl-1,3-oxazol-4-yl]methoxy}-3-methoxybenzyl)oxy]-1H-pyrazole-4-carbaldehyde]
105 to 106 °C	COc1cc(COc2nn(Cc3ccccc3)cc2C(C)O)ccc1OCc1nc(-c2ccco2)oc1C (stereo not shown) [Example 18, 1-{1-benzyl-3-[(4-{[2-(2-furyl)-5-methyl-1,3-oxazol-4-yl]methoxy}-3-methoxybenzyl)oxy]-1H-pyrazol-4-yl}-1-ethanol]
144 to 145 °C	COc1cc(COc2nn(Cc3ccccc3)cc2C(C)=O)ccc1OCc1nc(-c2ccco2)oc1C [Example 19, 1-{1-benzyl-3-[(4-{[2-(2-furyl)-5-methyl-1,3-oxazol-4-yl]methoxy}-3-methoxybenzyl)oxy]-1H-pyrazol-4-yl}-1-ethanone]
99 to 100 °C	CCOC(=O)c1cn(Cc2ccccc2)nc1OCc1ccc(OCc2nc(-c3ccccc3)oc2C)cc1 [Example 20, ethyl 1-benzyl-3-({4-[(5-methyl-2-phenyl-1,3-oxazol-4-yl)methoxy]benzyl}oxy)-1H-pyrazole-4-carboxylate]
133 to 134 °C	Cc1oc(-c2ccccc2)nc1COc1ccc(COc2nn(Cc3ccccc3)cc2C=O)cc1 [Example 22, 1-benzyl-3-[{4-[(5-methyl-2-phenyl-1,3-oxazol-4-yl)methoxy]benzyl}oxy]-1H-pyrazole-4-carbaldehyde]
95 to 96 °C	CCOC(=O)c1cn(Cc2ccccc2)nc1OCc1cccc(OCc2nc(-c3ccccc3)oc2C)c1 [Example 23, ethyl 1-benzyl-3-({3-[(5-methyl-2-phenyl-1,3-oxazol-4-yl)methoxy]benzyl}oxy)-1H-pyrazole-4-carboxylate]
131 to 132 °C	Cc1oc(-c2ccccc2)nc1COc1cccc(COc2nn(Cc3ccccc3)cc2C=O)c1 [Example 25, 1-benzyl-3-({3-[(5-methyl-2-phenyl-1,3-oxazol-4-yl)methoxy]benzyl}oxy)-1H-pyrazole-4-carbaldehyde]
92 to 93 °C	CCOC(=O)c1cn(Cc2ccccc2)nc1OCc1cccc(OCc2nc(-c3ccco3)oc2C)c1 [Example 26, ethyl 1-benzyl-3-[(3-{[2-(2-furyl)-5-methyl-1,3-oxazol-4-yl]methoxy}benzyl)oxy]-1H-pyrazole-4-carboxylate]
135 to 136 °C	Cc1oc(-c2ccco2)nc1COc1cccc(COc2nn(Cc3ccccc3)cc2C=O)c1 [Example 28, 1-benzyl-3-[(3-{[2-(2-furyl)-5-methyl-1,3-oxazol-4-yl]methoxy}benzyl)oxy]-1H-pyrazole-4-carbaldehyde]
121 to 122 °C	CCOC(=O)c1cn(Cc2ccccc2)nc1OCc1ccc(OCc2nc(-c3ccco3)oc2C)c(OCC)c1 [Example 29, ethyl 1-benzyl-3-[(3-ethoxy-4-{[2-(2-furyl)-5-methyl-1,3-oxazol-4-yl]methoxy}benzyl)oxy]-1H-pyrazole-4-carboxylate]
